Source: PubChem BioAssay AID2060497 (Molecular Pharmacology Branch, DTP, NCI, 2025)

Tested on: 317291-083-R-J1-PDC complex spheroids, viability
Test: Anticancer human tumor 317291-083-R-J1-PDC patient-derived soft tissue sarcoma cell line growth inhibition [GQUAD]
Settings: for IC50: curve of first compound; for viability, T/C: stronger effect = lower value
Method in brief: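 Viability of tumor cells grown as complex spheroids with endothelial and stromal cells, exposed to drug combinations. Top concentration at or near clinical Cmax (else 10 microM), diluted in half-log increments.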
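Note: spheroids exposed to compounds for one week before readout.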
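Throughout, for viability, T/C: percent viability relative to DMSO vehicle wells taken as 100%.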

CC[C@@]1(O)C(=O)OCc2c1cc1n(c2=O)Cc2cc3c(CN(C)C)c(O)ccc3nc2-1 + Cc1[nH]c2ccc(F)cc2c1-c1nc2c3cccnc3c3ncccc3c2[nH]1
IC50 (second compound 0.0316 µM): 0.0539 µM
IC50 (second compound 0.1 µM): 0.0615 µM
IC50 (second compound 0.316 µM): 0.0559 µM
IC50 (second compound 1 µM): 0.0607 µM
IC50 (second compound 3.16 µM): 0.0465 µM
IC50 (second compound 10 µM): 0.0245 µM
viability, T/C (second compound 0.0316 µM, first compound 0.000999 µM): 97.6%
viability, T/C (second compound 0.0316 µM, first compound 0.00316 µM): 92%
viability, T/C (second compound 0.0316 µM, first compound 0.00999 µM): 83%
viability, T/C (second compound 0.0316 µM, first compound 0.0316 µM): 72.3%
viability, T/C (second compound 0.0316 µM, first compound 0.0999 µM): 25%
viability, T/C (second compound 0.0316 µM, first compound 0.316 µM): 14.7%
viability, T/C (second compound 0.1 µM, first compound 0.000999 µM): 106%
viability, T/C (second compound 0.1 µM, first compound 0.00316 µM): 91.9%
viability, T/C (second compound 0.1 µM, first compound 0.00999 µM): 91.2%
viability, T/C (second compound 0.1 µM, first compound 0.0316 µM): 87.6%
viability, T/C (second compound 0.1 µM, first compound 0.0999 µM): 22.5%
viability, T/C (second compound 0.1 µM, first compound 0.316 µM): 17.7%
viability, T/C (second compound 0.316 µM, first compound 0.000999 µM): 96.9%
viability, T/C (second compound 0.316 µM, first compound 0.00316 µM): 97.9%
viability, T/C (second compound 0.316 µM, first compound 0.00999 µM): 90.9%
viability, T/C (second compound 0.316 µM, first compound 0.0316 µM): 75.7%
viability, T/C (second compound 0.316 µM, first compound 0.0999 µM): 24.1%
viability, T/C (second compound 0.316 µM, first compound 0.316 µM): 9.9%
viability, T/C (second compound 1 µM, first compound 0.000999 µM): 98.8%
viability, T/C (second compound 1 µM, first compound 0.00316 µM): 96.6%
viability, T/C (second compound 1 µM, first compound 0.00999 µM): 108%
viability, T/C (second compound 1 µM, first compound 0.0316 µM): 74.4%
viability, T/C (second compound 1 µM, first compound 0.0999 µM): 30.9%
viability, T/C (second compound 1 µM, first compound 0.316 µM): 9.35%
viability, T/C (second compound 3.16 µM, first compound 0.000999 µM): 97.6%
viability, T/C (second compound 3.16 µM, first compound 0.00316 µM): 100%
viability, T/C (second compound 3.16 µM, first compound 0.00999 µM): 80.4%
viability, T/C (second compound 3.16 µM, first compound 0.0316 µM): 64.6%
viability, T/C (second compound 3.16 µM, first compound 0.0999 µM): 26.2%
viability, T/C (second compound 3.16 µM, first compound 0.316 µM): 9.6%
viability, T/C (second compound 10 µM, first compound 0.000999 µM): 63.8%
viability, T/C (second compound 10 µM, first compound 0.00316 µM): 69.1%
viability, T/C (second compound 10 µM, first compound 0.00999 µM): 84%
viability, T/C (second compound 10 µM, first compound 0.0316 µM): 43.7%
viability, T/C (second compound 10 µM, first compound 0.0999 µM): 18.7%
viability, T/C (second compound 10 µM, first compound 0.316 µM): 8.82%
